Among the test systems are OVCAR-4 ovarian; LOX IMVI melanoma; KM20L2 colon; NCI-H522 lung; COLO 205 colon; SW-620 colon; UACC-257 melanoma; SK-MEL-28 melanoma; CAKI-1 renal; IGROV1 ovarian; SK-MEL-5 melanoma; TK-10 renal; SF-268 CNS; OVCAR-5 ovarian; NCI-H226 lung; HCT-15 colon; A498 renal; EKVX NSCLC; T-47D breast; MDA-MB-435.
Holding throughout (assay): DTP human tumour cell line panel, 48 h

SMILES strings stand for the structures.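 Dose response: 5 concentrations. Exposure: 48 h. Format: 96-well plates. Endpoint: linear interpolation; highest concentration if not reached. TGI is the concentration that stops growth completely.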

In the case of `CCN(CC)CCNc1ccc2nnn3c4ccc(C)cc4c(=O)c1c23`, the TGI in the experiment on OVCAR-4 ovarian came out at 25.2 µM; with LOX IMVI melanoma, 14.8 µM; with KM20L2 colon, 19.3 µM; in the experiment on NCI-H522 lung, 20.5 µM; with COLO 205 colon, 20.6 µM; in the experiment on SW-620 colon, 17.2 µM. Further, the TGI worked out at 26.5 µM in the experiment with UACC-257 melanoma; 28.9 µM in the experiment on SK-MEL-28 melanoma; 34.9 µM in the experiment on CAKI-1 renal; 26.4 µM in the experiment with IGROV1 ovarian; 22.5 µM in the experiment with SK-MEL-5 melanoma; 28.8 µM in the experiment with TK-10 renal. In addition, the total growth inhibition concentration (TGI) in the experiment on SF-268 CNS was 22.3 µM; in the experiment with OVCAR-5 ovarian, 21.4 µM; in the experiment on NCI-H226 lung it was 23.9 µM; with HCT-15 colon, 22.4 µM; in the experiment with A498 renal, 29.3 µM.

In the case of `Cc1ccc(NCC(=O)N2CC(=O)Nc3ccccc32)c(C)c1`, the TGI in the experiment on OVCAR-4 ovarian, in the experiment with LOX IMVI melanoma, in the experiment on KM20L2 colon, in the experiment with NCI-H522 lung, in the experiment on COLO 205 colon and in the experiment on SW-620 colon was over 100 µM each time. In addition, the TGI with UACC-257 melanoma, in the experiment with SK-MEL-28 melanoma, with CAKI-1 renal, in the experiment on EKVX NSCLC, with SK-MEL-5 melanoma and with TK-10 renal was over 100 µM in each case. For the same molecule, the TGI in the experiment with SF-268 CNS, with OVCAR-5 ovarian, in the experiment with NCI-H226 lung and in the experiment with HCT-15 colon was over 100 µM throughout.

Consider `NCCCOc1ccc([N+](=O)[O-])cc1Cl`, for which the TGI in the experiment with OVCAR-4 ovarian was over 100 µM; in the experiment on KM20L2 colon it was over 100 µM; in the experiment on NCI-H522 lung, 18.2 µM; in the experiment on COLO 205 colon, over 100 µM; in the experiment with SW-620 colon, over 100 µM; in the experiment on UACC-257 melanoma, over 100 µM. Besides, the TGI in the experiment with SK-MEL-28 melanoma, in the experiment with CAKI-1 renal, in the experiment on IGROV1 ovarian, with SK-MEL-5 melanoma, in the experiment on TK-10 renal and in the experiment on SF-268 CNS was over 100 µM in each case. Further, the TGI with OVCAR-5 ovarian, in the experiment on NCI-H226 lung and in the experiment with HCT-15 colon was over 100 µM in each case.

For the molecule `C/C(N=NS(=O)(=O)c1ccccc1)=C1\C=CC=CN1O`, the TGI in the experiment on OVCAR-4 ovarian, in the experiment with KM20L2 colon, in the experiment with NCI-H522 lung, with SW-620 colon, in the experiment on UACC-257 melanoma and in the experiment with SK-MEL-28 melanoma was over 100 µM throughout. The TGI in the experiment with CAKI-1 renal, in the experiment on EKVX NSCLC, in the experiment with IGROV1 ovarian, in the experiment on SK-MEL-5 melanoma, in the experiment with TK-10 renal and in the experiment with SF-268 CNS was over 100 µM in each case. Moreover, the concentration for total growth inhibition (TGI) in the experiment on OVCAR-5 ovarian, with HCT-15 colon and with A498 renal was over 100 µM throughout.

As to `BrC1=CCC23CC=C(Br)[C@H]4CC2(COC3)C[C@@H]1O4` (stereo partly drawn), the TGI with OVCAR-4 ovarian is over 100 µM; in the experiment with LOX IMVI melanoma, over 100 µM; in the experiment with KM20L2 colon, over 100 µM; with NCI-H522 lung it was 66.2 µM; in the experiment with COLO 205 colon, over 100 µM; in the experiment on SW-620 colon, over 100 µM. Further, the TGI with SK-MEL-28 melanoma is 62.1 µM; in the experiment on EKVX NSCLC, over 100 µM; with IGROV1 ovarian, over 100 µM; with SK-MEL-5 melanoma, over 100 µM; in the experiment with TK-10 renal, over 100 µM; with SF-268 CNS it was 30.9 µM. Also, the TGI with OVCAR-5 ovarian was 86.2 µM; with NCI-H226 lung, over 100 µM; in the experiment with HCT-15 colon it was over 100 µM.

Regarding `Cc1c(C)c(C)c(-n2c(=O)n(C)c(=O)n2-n2c(=O)n(C)c(=O)n2-c2c(C)c(C)c(C)c(C)c2C)c(C)c1C`, the TGI with OVCAR-4 ovarian, in the experiment with T-47D breast, with LOX IMVI melanoma, with NCI-H522 lung, in the experiment with COLO 205 colon and in the experiment on SW-620 colon was over 100 µM throughout. Moreover, the TGI with UACC-257 melanoma, in the experiment on SK-MEL-28 melanoma, in the experiment on CAKI-1 renal, with EKVX NSCLC, in the experiment with IGROV1 ovarian and with SK-MEL-5 melanoma was over 100 µM throughout. For the same molecule, the total growth inhibition concentration (TGI) with TK-10 renal, in the experiment on SF-268 CNS, in the experiment on OVCAR-5 ovarian, with NCI-H226 lung, in the experiment with HCT-15 colon and with A498 renal was over 100 µM in each case. The molecule also came in with a TGI with MDA-MB-435 of over 100 µM.

Regarding `O=C1NCC(CSc2nc3cc(C4CCCc5c4[nH]c4ccccc54)ccc3o2)N1` (stereo not drawn), the TGI with OVCAR-4 ovarian, in the experiment with T-47D breast, in the experiment with LOX IMVI melanoma, in the experiment on NCI-H522 lung, in the experiment on COLO 205 colon and in the experiment with SW-620 colon was over 100 µM in each case. For the same molecule, the TGI in the experiment on UACC-257 melanoma, in the experiment with SK-MEL-28 melanoma, in the experiment on CAKI-1 renal, in the experiment with EKVX NSCLC, in the experiment with IGROV1 ovarian and in the experiment on SK-MEL-5 melanoma was over 100 µM in each case. Moreover, the TGI with TK-10 renal was over 100 µM; in the experiment with SF-268 CNS, over 100 µM; in the experiment on OVCAR-5 ovarian, over 100 µM; with NCI-H226 lung, over 100 µM; in the experiment on HCT-15 colon, over 100 µM; in the experiment on A498 renal it was 50.6 µM. In the experiment on MDA-MB-435, the TGI was over 100 µM.

On to `COc1ccc([C@H]2CC(=O)C[C@H](c3ccc(OC)cc3)C23C(=O)c2ccccc2C3=O)cc1`, for which the TGI is over 100 µM with OVCAR-4 ovarian; over 100 µM with T-47D breast; over 100 µM with LOX IMVI melanoma; 18.6 µM in the experiment on NCI-H522 lung; 8.32 µM in the experiment on COLO 205 colon; over 100 µM in the experiment on SW-620 colon. The TGI in the experiment with UACC-257 melanoma was 7.74 µM; with SK-MEL-28 melanoma, over 100 µM; in the experiment on CAKI-1 renal it was over 100 µM; with EKVX NSCLC, over 100 µM; in the experiment with IGROV1 ovarian, over 100 µM; with SK-MEL-5 melanoma it was 17.4 µM. Also, the TGI in the experiment with TK-10 renal, in the experiment with SF-268 CNS, in the experiment with OVCAR-5 ovarian, in the experiment on NCI-H226 lung, in the experiment on HCT-15 colon and with A498 renal was over 100 µM throughout. This molecule also gave a TGI with MDA-MB-435 of 5.95 µM.

Turning to `CC(=O)C1(Cc2cccc3ccccc23)S(=O)(=O)OCCOS1(=O)=O`, the TGI worked out at 75.9 µM in the experiment with OVCAR-4 ovarian; 43.3 µM in the experiment on T-47D breast; 25.7 µM with LOX IMVI melanoma; 47.7 µM in the experiment with NCI-H522 lung; 30.8 µM with COLO 205 colon; 39.2 µM in the experiment with SW-620 colon. For the same molecule, the TGI with UACC-257 melanoma worked out at 16.6 µM; with SK-MEL-28 melanoma, 41.2 µM; with CAKI-1 renal it was 30.1 µM; in the experiment on EKVX NSCLC it was 32.6 µM; with IGROV1 ovarian it was 15.1 µM; in the experiment on SK-MEL-5 melanoma it was 24.6 µM. Besides, the TGI turned out to be 39.6 µM in the experiment on TK-10 renal; 50.2 µM with SF-268 CNS; 32.5 µM in the experiment on OVCAR-5 ovarian; 35.3 µM in the experiment on NCI-H226 lung; 41.6 µM in the experiment on HCT-15 colon; 35.7 µM with A498 renal. Also, the total growth inhibition concentration (TGI) in the experiment with MDA-MB-435 was determined as 27.8 µM.

`[N-]=[N+]=NC(CCl)c1cn([C@H]2C[C@H](O)[C@@H](CO)O2)c(=O)[nH]c1=O` (stereo partly drawn): the TGI in the experiment with LOX IMVI melanoma, with KM20L2 colon, with NCI-H522 lung, with COLO 205 colon, with SW-620 colon and in the experiment with SK-MEL-28 melanoma was over 100 µM each time. The TGI in the experiment with CAKI-1 renal, with EKVX NSCLC, in the experiment with IGROV1 ovarian, in the experiment with SK-MEL-5 melanoma, with TK-10 renal and in the experiment on OVCAR-5 ovarian was over 100 µM in each case. In addition, the TGI in the experiment on NCI-H226 lung and in the experiment with HCT-15 colon was over 100 µM in each case.

The values are drawn from PubChem BioAssay (NCI).
